Laboratory results as given in the supplement of paper PMC11368000.

Tests used:
Settings in all cases: exposure time: 90 min
1118 = donor line of iPSC-derived cardiomyocytes; test: POD (EC05) for increase in beat frequency (positive chronotrope) vs vehicle; higher = less potent (higher point of departure)
Experimental: (§1)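 Human iPSC-derived cardiomyocytes from 16 donors were exposed for 90 min at 37 °C to each PFAS at 0.1, 1, 10 and 100 µM in 0.5% DMSO, 384-well plates. Kinetic Ca2+ flux (FLIPR) and Hoechst nuclei counts were normalised to vehicle wells and fitted with a hierarchical Bayesian Hill model to give donor-specific PODs: EC05 for beat-rate increase or decrease and for decay-to-rise ratio increase (QT proxy), EC95 for peak-frequency loss (asystole), EC10 for total cell number loss. 0.03 µM is the lower bound.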

1531 = donor line of iPSC-derived cardiomyocytes; test: as above
Experimental: as §1

11235 = donor line of iPSC-derived cardiomyocytes; test: as above
Experimental: as §1

1565 [1] = donor line of iPSC-derived cardiomyocytes; test: as above
Experimental: as §1

1516 [2] = donor line of iPSC-derived cardiomyocytes; test: as above
Experimental: as §1

20084 [3] = donor line of iPSC-derived cardiomyocytes; test: as above
Experimental: as §1

20032 [4] = donor line of iPSC-derived cardiomyocytes; test: as above
Experimental: as §1

1309 [5] = donor line of iPSC-derived cardiomyocytes; test: as above
Experimental: as §1

1518 = donor line of iPSC-derived cardiomyocytes; test: as above
Experimental: as §1

1083 = donor line of iPSC-derived cardiomyocytes; test: as above
Experimental: as §1

30171 = donor line of iPSC-derived cardiomyocytes; test: as above
Experimental: as §1

1434 = donor line of iPSC-derived cardiomyocytes; test: as above
Experimental: as §1

1392 = donor line of iPSC-derived cardiomyocytes; test: POD (EC05) for decrease in beat frequency (negative chronotrope) vs vehicle; higher = less potent (higher point of departure)
How it was run: (§2)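 Human iPSC-derived cardiomyocytes from 16 donors were cultured 14 days in gelatin-coated 384-well plates and loaded 2 h with fluorescent Ca2+ dye. They were then exposed for 90 min at 37 °C to 0.1, 1, 10 and 100 µM (final, 0.5% DMSO). Ca2+ flux was recorded on a FLIPR Tetra (8 frames/s, 100 s) before and after exposure. Donor-specific points of departure came from hierarchical Bayesian Hill fits to vehicle-normalised beat frequency, decay-to-rise ratio or peak frequency. Thresholds were 5% change, or 95% loss for peak frequency.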

30145 = donor line of iPSC-derived cardiomyocytes; test: as above
How it was run: as §2

1565 [6] = test: as above
How it was run: as §2

1516 [7] = test: as above
How it was run: as §2

20084 [8] = test: as above
How it was run: as §2

20032 [9] = test: as above
How it was run: as §2

1309 [10] = test: as above
How it was run: as §2

1535 = donor line of iPSC-derived cardiomyocytes; test: as above
How it was run: as §2

NC(=O)C(F)(F)C(F)(F)C(F)(F)F [Heptafluorobutyramide]
POD vs vehicle 1118: > 100 µM
POD vs vehicle 1531: > 100 µM
POD vs vehicle 11235: > 100 µM
POD vs vehicle 1565 [1]: > 100 µM
POD vs vehicle 1516 [2]: > 100 µM
POD vs vehicle 20084 [3]: > 100 µM
POD vs vehicle 20032 [4]: > 100 µM
POD vs vehicle 1309 [5]: > 100 µM
POD vs vehicle 1518: > 100 µM
POD vs vehicle 1083: > 100 µM
POD vs vehicle 30171: > 100 µM
POD vs vehicle 1434: > 100 µM
POD vs vehicle 1392: > 100 µM
POD vs vehicle 30145: > 100 µM
POD vs vehicle 1565 [6]: > 100 µM
POD vs vehicle 1516 [7]: > 100 µM
POD vs vehicle 20084 [8]: > 100 µM
POD vs vehicle 20032 [9]: > 100 µM
POD vs vehicle 1309 [10]: > 100 µM
POD vs vehicle 1535: > 100 µM

OCC(F)(F)C(F)(F)C(F)(F)CO [Hexafluoroamylene_glycol]
POD vs vehicle 1118: > 100 µM
POD vs vehicle 1531: > 100 µM
POD vs vehicle 11235: > 100 µM
POD vs vehicle 1565 [1]: > 100 µM
POD vs vehicle 1516 [2]: > 100 µM
POD vs vehicle 20084 [3]: > 100 µM
POD vs vehicle 20032 [4]: > 100 µM
POD vs vehicle 1309 [5]: > 100 µM
POD vs vehicle 1518: > 100 µM
POD vs vehicle 1083: > 100 µM
POD vs vehicle 30171: > 100 µM
POD vs vehicle 1434: > 100 µM
POD vs vehicle 1392: > 100 µM
POD vs vehicle 30145: > 100 µM
POD vs vehicle 1565 [6]: > 100 µM
POD vs vehicle 1516 [7]: > 100 µM
POD vs vehicle 20084 [8]: > 100 µM
POD vs vehicle 20032 [9]: > 100 µM
POD vs vehicle 1309 [10]: > 100 µM
POD vs vehicle 1535: > 100 µM

COC(=O)C(F)(F)C(F)(F)OC(F)(C(F)(F)F)C(F)(F)OC(F)=C(F)F (stereo not given) [Methyl_perfluoro(3-(1-ethenyloxypropan-2-yloxy)propanoate)]
POD vs vehicle 1118: > 100 µM
POD vs vehicle 1531: > 100 µM
POD vs vehicle 11235: > 100 µM
POD vs vehicle 1565 [1]: > 100 µM
POD vs vehicle 1516 [2]: > 100 µM
POD vs vehicle 20084 [3]: > 100 µM
POD vs vehicle 20032 [4]: > 100 µM
POD vs vehicle 1309 [5]: > 100 µM
POD vs vehicle 1518: > 100 µM
POD vs vehicle 1083: > 100 µM
POD vs vehicle 30171: > 100 µM
POD vs vehicle 1434: > 100 µM
POD vs vehicle 1392: > 100 µM
POD vs vehicle 30145: > 100 µM
POD vs vehicle 1565 [6]: > 100 µM
POD vs vehicle 1516 [7]: > 100 µM
POD vs vehicle 20084 [8]: > 100 µM
POD vs vehicle 20032 [9]: > 100 µM
POD vs vehicle 1309 [10]: > 100 µM
POD vs vehicle 1535: > 100 µM

NC(=O)C(F)(F)C(F)(F)C(F)(F)C(F)(F)F [Nonafluoropentanamide]
POD vs vehicle 1118: > 100 µM
POD vs vehicle 1531: > 100 µM
POD vs vehicle 11235: > 100 µM
POD vs vehicle 1565 [1]: > 100 µM
POD vs vehicle 1516 [2]: > 100 µM
POD vs vehicle 20084 [3]: > 100 µM
POD vs vehicle 20032 [4]: > 100 µM
POD vs vehicle 1309 [5]: > 100 µM
POD vs vehicle 1518: > 100 µM
POD vs vehicle 1083: > 100 µM
POD vs vehicle 30171: > 100 µM
POD vs vehicle 1434: > 100 µM
POD vs vehicle 1392: > 100 µM
POD vs vehicle 30145: > 100 µM
POD vs vehicle 1565 [6]: > 100 µM
POD vs vehicle 1516 [7]: > 100 µM
POD vs vehicle 20084 [8]: > 100 µM
POD vs vehicle 20032 [9]: > 100 µM
POD vs vehicle 1309 [10]: > 100 µM
POD vs vehicle 1535: > 100 µM

NC(=O)C(F)(F)C(F)(F)C(F)(F)C(F)(F)C(N)=O [Octafluoroadipamide]
POD vs vehicle 1118: > 100 µM
POD vs vehicle 1531: > 100 µM
POD vs vehicle 11235: > 100 µM
POD vs vehicle 1565 [1]: > 100 µM
POD vs vehicle 1516 [2]: > 100 µM
POD vs vehicle 20084 [3]: > 100 µM
POD vs vehicle 20032 [4]: > 100 µM
POD vs vehicle 1309 [5]: > 100 µM
POD vs vehicle 1518: > 100 µM
POD vs vehicle 1083: > 100 µM
POD vs vehicle 30171: > 100 µM
POD vs vehicle 1434: > 100 µM
POD vs vehicle 1392: > 100 µM
POD vs vehicle 30145: > 100 µM
POD vs vehicle 1565 [6]: > 100 µM
POD vs vehicle 1516 [7]: > 100 µM
POD vs vehicle 20084 [8]: > 100 µM
POD vs vehicle 20032 [9]: > 100 µM
POD vs vehicle 1309 [10]: > 100 µM
POD vs vehicle 1535: > 100 µM

O=C(O)C(F)(F)C(F)(F)C(F)(F)C(F)(F)C(=O)O [Octafluoroadipic_acid]
POD vs vehicle 1118: > 100 µM
POD vs vehicle 1531: > 100 µM
POD vs vehicle 11235: > 100 µM
POD vs vehicle 1565 [1]: > 100 µM
POD vs vehicle 1516 [2]: > 100 µM
POD vs vehicle 20084 [3]: > 100 µM
POD vs vehicle 20032 [4]: > 100 µM
POD vs vehicle 1309 [5]: > 100 µM
POD vs vehicle 1518: > 100 µM
POD vs vehicle 1083: > 100 µM
POD vs vehicle 30171: > 100 µM
POD vs vehicle 1434: > 100 µM
POD vs vehicle 1392: > 100 µM
POD vs vehicle 30145: > 100 µM
POD vs vehicle 1565 [6]: > 100 µM
POD vs vehicle 1516 [7]: > 100 µM
POD vs vehicle 20084 [8]: > 100 µM
POD vs vehicle 20032 [9]: > 100 µM
POD vs vehicle 1309 [10]: > 100 µM
POD vs vehicle 1535: > 100 µM

O=C(O)C(F)(F)C(F)(F)C(F)(F)OC(F)(F)F [Perfluoro(4-methoxybutanoic)_acid]
POD vs vehicle 1118: > 100 µM
POD vs vehicle 1531: > 100 µM
POD vs vehicle 11235: > 100 µM
POD vs vehicle 1565 [1]: > 100 µM
POD vs vehicle 1516 [2]: > 100 µM
POD vs vehicle 20084 [3]: > 100 µM
POD vs vehicle 20032 [4]: > 100 µM
POD vs vehicle 1309 [5]: > 100 µM
POD vs vehicle 1518: > 100 µM
POD vs vehicle 1083: > 100 µM
POD vs vehicle 30171: > 100 µM
POD vs vehicle 1434: > 100 µM
POD vs vehicle 1392: > 100 µM
POD vs vehicle 30145: > 100 µM
POD vs vehicle 1565 [6]: > 100 µM
POD vs vehicle 1516 [7]: > 100 µM
POD vs vehicle 20084 [8]: > 100 µM
POD vs vehicle 20032 [9]: > 100 µM
POD vs vehicle 1309 [10]: > 100 µM
POD vs vehicle 1535: > 100 µM

O=C(O)C(F)(F)OC(F)(F)C(F)(F)OC(F)(F)C(F)(F)OC(F)(F)C(F)(F)C(F)(F)C(F)(F)F [Perfluoro-3,6,9-trioxatridecanoic_acid]
POD vs vehicle 1118: > 100 µM
POD vs vehicle 1531: > 100 µM
POD vs vehicle 11235: > 100 µM
POD vs vehicle 1565 [1]: > 100 µM
POD vs vehicle 1516 [2]: > 100 µM
POD vs vehicle 20084 [3]: > 100 µM
POD vs vehicle 20032 [4]: > 100 µM
POD vs vehicle 1309 [5]: > 100 µM
POD vs vehicle 1518: > 100 µM
POD vs vehicle 1083: > 100 µM
POD vs vehicle 30171: > 100 µM
POD vs vehicle 1434: > 100 µM
POD vs vehicle 1392: > 100 µM
POD vs vehicle 30145: > 100 µM
POD vs vehicle 1565 [6]: > 100 µM
POD vs vehicle 1516 [7]: 22.2 µM
POD vs vehicle 20084 [8]: 77.9 µM
POD vs vehicle 20032 [9]: 42 µM
POD vs vehicle 1309 [10]: > 100 µM
POD vs vehicle 1535: 79.4 µM

O=C(O)C(F)(F)OC(F)(F)C(F)(F)OC(F)(F)F [Perfluoro-3,6-dioxaheptanoic_acid]
POD vs vehicle 1118: > 100 µM
POD vs vehicle 1531: > 100 µM
POD vs vehicle 11235: > 100 µM
POD vs vehicle 1565 [1]: > 100 µM
POD vs vehicle 1516 [2]: > 100 µM
POD vs vehicle 20084 [3]: > 100 µM
POD vs vehicle 20032 [4]: > 100 µM
POD vs vehicle 1309 [5]: > 100 µM
POD vs vehicle 1518: > 100 µM
POD vs vehicle 1083: > 100 µM
POD vs vehicle 30171: > 100 µM
POD vs vehicle 1434: > 100 µM
POD vs vehicle 1392: > 100 µM
POD vs vehicle 30145: > 100 µM
POD vs vehicle 1565 [6]: > 100 µM
POD vs vehicle 1516 [7]: > 100 µM
POD vs vehicle 20084 [8]: > 100 µM
POD vs vehicle 20032 [9]: > 100 µM
POD vs vehicle 1309 [10]: > 100 µM
POD vs vehicle 1535: > 100 µM

O=C(O)C(F)(F)OC(F)(F)C(F)(F)OC(F)(F)C(=O)O [Perfluoro-3,6-dioxaoctane-1,8-dioic_acid]
POD vs vehicle 1118: > 100 µM
POD vs vehicle 1531: > 100 µM
POD vs vehicle 11235: > 100 µM
POD vs vehicle 1565 [1]: > 100 µM
POD vs vehicle 1516 [2]: 68.4 µM
POD vs vehicle 20084 [3]: > 100 µM
POD vs vehicle 20032 [4]: > 100 µM
POD vs vehicle 1309 [5]: > 100 µM
POD vs vehicle 1518: 28 µM
POD vs vehicle 1083: > 100 µM
POD vs vehicle 30171: > 100 µM
POD vs vehicle 1434: > 100 µM
POD vs vehicle 1392: > 100 µM
POD vs vehicle 30145: > 100 µM
POD vs vehicle 1565 [6]: > 100 µM
POD vs vehicle 1516 [7]: > 100 µM
POD vs vehicle 20084 [8]: > 100 µM
POD vs vehicle 20032 [9]: > 100 µM
POD vs vehicle 1309 [10]: > 100 µM
POD vs vehicle 1535: > 100 µM
